Values of other authors as cited in article PMC7306898, “Concentration-Dependent Activity of Hydromethylthionine on Clinical Decline and Brain Atrophy in a Randomized Controlled Trial in Behavioral Variant Frontotemporal Dementia” (Journal of Alzheimer's Disease, 2020).
Like-named read-outs stand apart in the source and are kept apart here.

What was measured:
[1] = cited from earlier work; for Plasma Half-life, Mean: value in parentheses ref U.S. approved product labeling
[2] = set-up: method as in Investigator's Brochure; conditions: coadministration of reduced leuco (LMT) form with food ref Investigator's Brochure; cited from earlier work
[3] = test system: TDP-43; set-up: method as in PMID 19560462; conditions: cell models ref 34; read-out: EC50, inhibition of aggregation of TDP-43; cited from earlier work
[4] = test system: mitochondrial activity; set-up: method as in PMID 22419586, PMID 17928358; conditions: cited from earlier work
[5] = test system: serotonin transporter; set-up: method as in PMID 21542830; conditions: in vitro ref 73; cited from earlier work
[6] = test system: subjects with mild or moderate AD; conditions: cited from earlier work
[7] = test system: male rats; set-up: method as in U.S. National Toxicology Program; conditions: pancreatic islet cell adenoma and adenoma or carcinoma ref U.S. National Toxicology Program; cited from earlier work
[8] = test system: mice; set-up: method as in U.S. National Toxicology Program; conditions: cited from earlier work
[9] = test system: subjects with a clinical diagnosis within the FTLD spectrum; set-up: method as in Investigator's Brochure; conditions: MTC 138 mg/day MT, cited from earlier work
[10] = test system: subjects with AD; set-up: method as in TRx-014-001; conditions: cited from earlier work
[11] = ref U.S. approved product labeling
[12] = single dose ref U.S. approved product labeling
[13] = Biphasic ref U.S. approved product labeling

SMILES	Plasma Half-life, range or single value [1, 11] [h]	also measured
N[C@@H]1C[C@H]1c1ccccc1 (racemic) [Tr a n yl c yp r o mi n e, Tranylcypromine]	2.5	
Oc1ccc2c(c1)N=C(N1CCNCC1)c1cc(Cl)ccc1O2 [8-hydroxyamoxapine]	30	
CN(C)CCC=C1c2ccccc2CCc2ccccc21 [Amitriptyline]	9 to 25	
Clc1ccc2c(c1)C(N1CCNCC1)=Nc1ccccc1O2 [Amo xapine, Amoxapine]	8	
CC(NC(C)(C)C)C(=O)c1cccc(Cl)c1 (centres unmarked) [Bupropion]	12 to 30	Plasma Half-life, Mean [1]: 21 h
O=C1CC2(CCCC2)CC(=O)N1CCCCN1CCN(c2ncccn2)CC1 [Buspirone]		Plasma Half-life [1, 12]: 2 to 3 h
CN(C)CCCC1(c2ccc(F)cc2)OCc2cc(C#N)ccc21 (centres unmarked) [Citalopram]	35	increase in half-life reported in elderly [1, 11]: 30-50%
CN(C)[C@@H](CCOc1cccc2ccccc12)c1ccccc1 [Dapoxetene]		Plasma Half-life, initial [1, 13]: 1.5 h; Plasma Half-life, terminal [1, 13]: 20 h
CNCCC=C1c2ccccc2COc2ccccc21 [Des meth yldoxepin, Desmethyldoxepin]	28 to 52	
CNCCCN1c2ccccc2CCc2ccccc21 [Desipramine]	12 to 27	
CNCCCN1c2ccccc2CCc2ccc(Cl)cc21 [Desmeth ylclo mipramine, Desmethylclomipramine]	54 to 77	Plasma Half-life, Mean [1]: 69 h
CN(C)CC(c1ccc(O)cc1)C1(O)CCCCC1 (centres unmarked) [Desven la fa xin e, Desvenlafaxine]	11	
CN(C)CC/C=C1\c2ccccc2CSc2ccccc21 [Dosulepin]	19 to 33	Plasma Half-life for “its metabolites” [1, 11]: 23 to 46 h
CN(C)CCC=C1c2ccccc2COc2ccccc21 [Doxepin]	15.3	
CC(NC(C)(C)C)C(O)c1cccc(Cl)c1 (centres unmarked) [Erythrohydrobupropion]	23 to 43	Plasma Half-life, Mean [1]: 33 h
CN(C)CCC[C@@]1(c2ccc(F)cc2)OCc2cc(C#N)ccc21 [Escitalopram]	27 to 32	increase in half-life reported in elderly [1, 11]: 50%
CNCCC(Oc1ccc(C(F)(F)F)cc1)c1ccccc1 (centres unmarked) [Fluoxetine]		Plasma Half-life ([1]; Acute ref U.S. approved product labeling): 24 to 72 h; Plasma Half-life ([1]; Chronic ref U.S. approved product labeling): 96 to 140 h
COCCCC/C(=N\OCCN)c1ccc(C(F)(F)F)cc1 [Fluvoxamine]	15.6	
C[C@H]1NC(C)(C)CO[C@]1(O)c1cccc(Cl)c1 [Hydroxybupropion]	15 to 25	Plasma Half-life, Mean [1]: 20 h
CN(C)c1ccc2c(c1)Sc1cc(N(C)C)ccc1N2 [LMT, leuco-methylthioninium]		lowering of peak concentrations with food [2]: 8%
CN(C)c1ccc2nc3ccc(=[N+](C)C)cc-3sc2c1 [MT, methylthioninium]		EC50 [3]: 50 nM; concentrations at which mitochondrial activity is enhanced [4]: 10 to 100 nM; IC50 [5]: 1200 nM
CN(C)c1ccc2nc3ccc(=[N+](C)C)cc-3sc2c1 [MTC, methylthioninium chloride]		clinically effective dose available ([6]; 100 mg MTC capsules twice or three times daily, nominal doses 152-228 mg/day ref Baddeley et al., 2015, Wischik et al.): 72 to 109 mg/day; minimum effective dose in AD ([6]; placebo-controlled dose-finding Phase II trial ref 47): 138 mg/day; carcinogenic activity [7]: som e evi dence of carcino genic; carcinogenic activity ([8]; female mice, malignant lymphoma ref U.S. National Toxicology Program): equi vocal eviden ce of; carcinogenic activity ([8]; male mice, carcinoma and adenoma or carcinoma in the small intestine ref U.S. National Toxicology Program): some evidenc e of car cinogeni c activit y; MMSE scores, mean above Baseline ([9]; 12 months ref Investigator's Brochure): 1.6 units; ACE-R scores improved by a mean (mean ± SEM) ([9]; 12 months, 7 subjects, LOCF ref Investigator's Brochure): 4.5 ± 2.4 units; methemoglobin, highest value observed ([10]; Phase 2 study ref TRx-014-001): 8%; Diarrhea and related adverse events ([10]; highest dose, 228 mg MT/day ref TRx-014-001): 48%; discontinuation due to urinary adverse events ([10]; including urinary discoloration and staining ref TRx-014-001): 6%; discontinuation due to diarrhea and related adverse events, overall ([10]; ref TRx-014-001): 16%; mean methemoglobin levels ([10]; ref TRx-014-001): below 3.5%; subjects discontinued due to vomiting ([10]; ref TRx-014-001): 3%; methemoglobin, mean overall ([10]; those treated with MTC ref TRx-014-001): 0.8%
CNCCCC12CCC(c3ccccc31)c1ccccc12 [Maprotiline]	51	

SMILES	Plasma Half-life, range or single value [1, 11] [h]	also measured
CCN(CC)C(=O)C1(c2ccccc2)CC1CN (centres unmarked) [Milnacipran]	6 to 8	
O=C(NCCN1CCOCC1)c1ccc(Cl)cc1 [Moclobemide]	1 to 2	
N[C@H]1CC[C@@H](c2ccc(Cl)c(Cl)c2)c2ccccc21 [N-desmethyls ertraline, N-desmethylsertraline]	62 to 104	
CCc1nn(CCCN2CCN(c3cccc(Cl)c3)CC2)c(=O)n1CCOc1ccccc1 [Nefazodone]	2 to 4	
CNCCC=C1c2ccccc2COc2ccccc21 [Nordoxepin]	31	
NCCC(Oc1ccc(C(F)(F)F)cc1)c1ccccc1 (centres unmarked) [Norfluoxetine]		Plasma Half-life, Range [1, 11]: 96 to 384 h; Plasma Half-life, Mean [1]: 223 h
CNCCC=C1c2ccccc2CCc2ccccc21 [Nortriptyline]	16 to 93	
CN(C)CC(c1ccc(O)cc1)C1(O)CCCCC1 (centres unmarked) [O-desmeth ylvenlafaxine, O-desmethylvenlafaxine]	9 to 13	
Fc1ccc([C@@H]2CCNC[C@H]2COc2ccc3c(c2)OCO3)cc1 [P aroxetine, Paroxetine]	21	
CNCCCC1c2ccccc2C=Cc2ccccc21 [P rotriptyline, Protriptyline]	55 to 198	
NNCCc1ccccc1 [Phenelzine]		Plasma Half-life [1, 12]: 11.6 h
C#CCNC(C)Cc1ccccc1 (stereo not drawn) [R(-)-N -desmeth ylselegiline, R(-)-N-desmethylselegiline]	18 to 25	
CN[C@H](C)Cc1ccccc1 [R(-)-methamphetamine]	18 to 25	
C#CCN(C)[C@H](C)Cc1ccccc1 [Selegiline]	10	
CN[C@H]1CC[C@@H](c2ccc(Cl)c(Cl)c2)c2ccccc21 [Sertraline]	26	
C[C@H](NC(C)(C)C)[C@@H](O)c1cccc(Cl)c1 [Threohydrobupropion]	24 to 50	Plasma Half-life, Mean [1]: 37 h
CC(CN(C)C)CN1c2ccccc2CCc2ccccc21 (centres unmarked) [Tr i mi p r a mi n e, Trimipramine]	11 to 23	
O=c1n(CCCN2CCN(c3cccc(Cl)c3)CC2)nc2ccccn12 [Trazodone]		Plasma Half-life [1, 12]: 10 h
COc1ccc(C(CN(C)C)C2(O)CCCCC2)cc1 (centres unmarked) [V enlafaxine, Venlafaxine]	3 to 7	
N#Cc1ccc2[nH]cc(CCCCN3CCN(c4ccc5oc(C(N)=O)cc5c4)CC3)c2c1 [V ilazod on e, Vilazodone]	25	
CCN(CC)C(=O)[C@]1(c2ccccc2)C[C@@H]1CN [d-milnacipran]	8 to 10	
CCN(CC)C(=O)[C@@]1(c2ccccc2)C[C@H]1CN [l-enatiomer]	4 to 6	
